Results published in patent US10626144B2, “Peptide derivatives and uses thereof” (Nosopharm, priority 2014, dated 2020).
Square brackets hold non-standard residues; d marks the D form. Peptide text beside a SMILES is read from it. * marks the point of attachment. Dab(3S-OH) = NC[C@H](O)[C@H](N)C(=O)O; His(τ-Me) = Cn1cnc(C[C@H](N)C(=O)O)c1; 2Pal = N[C@@H](Cc1ccccn1)C(=O)O; ΔZArg = N=C(N)NCC/C=C(\N)C(=O)O; NMeK = CN[C@@H](CCCCN)C(=O)O; dOrn = NCCC[C@@H](N)C(=O)O; Pra = C#CC[C@H](N)C(=O)O; Dab = NCC[C@H](N)C(=O)O; NH(CH2)4NH2 = NCCCCN*

Columns and labels:
[1] = target: N-type calcium channels (Cav2.2) (Rattus norvegicus (Rat), UniProt Q02294); assay: biochemical; format: binding; details: class symbol; rat cerebral cortex, [125I]ω-conotoxin GVIA 0.001 nM, 30 minutes at room temperature; read-out: IC50 Cav2.2
[2] = test system: Pseudomonas aeruginosa ATCC 27853; assay: MIC, broth microdilution (CLSI), reference strain; details: CAMHB
[3] = test system: Escherichia coli ATCC 25922; assay: MIC, broth microdilution (CLSI), reference strain; details: CAMHB
[4] = test system: Staphylococcus aureus ATCC 13709; assay: MIC, broth microdilution (CLSI), reference strain; details: CAMHB
[5] = test system: Acinetobacter baumannii ATCC 19606; assay: MIC, broth microdilution (CLSI), reference strain; details: CAMHB

SMILES	IC50 [1]	Pa: MIC Pseudomonas aeruginosa ATCC 27853 [2]	Ec: MIC Escherichia coli ATCC 25922 [3]	Sa: MIC Staphylococcus aureus ATCC 13709 [4]	Ab: MIC Acinetobacter baumannii ATCC 19606 [5]
C[C@H](NC(=O)[C@@H](NC(=O)[C@@H](N)CCCCN)[C@@H](O)CN)C(=O)NCC(=O)N[C@H](CCCN)C(=O)N1CCC[C@H]1C(=O)N[C@@H](Cc1cn(C)cn1)C(=O)N[C@@H](CCCCN)C(=O)N/C(=C\CCNC(=N)N)C(=O)O [24.76] (H-K[Dab(3S-OH)]AG[dOrn]P[His(τ-Me)]K[ΔZArg]-OH)	> 300 nM	− (>32 μg/mL)	− (>32 μg/mL)	+ (≤32 μg/mL)	− (>32 μg/mL)
C[C@H](NC(=O)[C@@H](NC(=O)[C@@H](N)CCCCN)[C@@H](O)CN)C(=O)NCC(=O)N[C@H](CCCN)C(=O)N1CCC[C@H]1C(=O)N[C@@H](Cc1ccc(O)cc1)C(=O)N[C@@H](CCCCN)C(=O)N/C(=C\CCNC(=N)N)C(=O)O [24.138] (H-K[Dab(3S-OH)]AG[dOrn]PYK[ΔZArg]-OH)	> 300 nM	− (>32 μg/mL)	+ (≤32 μg/mL)	+ (≤32 μg/mL)	− (>32 μg/mL)
C[C@H](NC(=O)[C@@H](NC(=O)[C@@H](N)CCCCN)[C@@H](O)CN)C(=O)NCC(=O)N[C@H](CCCN)C(=O)N1CCC[C@H]1C(=O)N[C@@H](Cc1ccccn1)C(=O)N[C@@H](CCCCN)C(=O)N/C(=C\CCNC(=N)N)C(=O)N[C@@H](CCCCN)C(=O)NCCCCN [24.17] (H-K[Dab(3S-OH)]AG[dOrn]P[2Pal]K[ΔZArg]K-{NH(CH2)4NH2})	< 30 nM	− (>32 μg/mL)	++ (≤8 μg/mL)	++ (≤8 μg/mL)	− (>32 μg/mL)
N=C(N)NCC/C=C(\NC(=O)[C@H](CCCCN)NC(=O)[C@H](Cc1cnc[nH]1)NC(=O)[C@@H]1CCCN1C(=O)[C@@H](CCCN)NC(=O)CNC(=O)[C@H](CCN)NC(=O)[C@@H](NC(=O)[C@@H](N)CCCCN)[C@@H](O)CN)C(=O)N[C@@H](CCCCN)C(=O)NCCCCN [21.1] (H-K[Dab(3S-OH)][Dab]G[dOrn]PHK[ΔZArg]K-{NH(CH2)4NH2})	< 30 nM	++ (≤8 μg/mL)	++ (≤8 μg/mL)	++ (≤8 μg/mL)	++ (≤8 μg/mL)
C[C@H](NC(=O)[C@@H](NC(=O)[C@@H](N)CCCCN)[C@@H](O)CN)C(=O)NCC(=O)N[C@H](CCCN)C(=O)N1CCC[C@H]1C(=O)N[C@@H](CC(N)=O)C(=O)N[C@@H](CCCCN)C(=O)N/C(=C\CCNC(=N)N)C(=O)N[C@@H](CCCCN)C(=O)NCCCCN [24.22] (H-K[Dab(3S-OH)]AG[dOrn]PNK[ΔZArg]K-{NH(CH2)4NH2})	< 30 nM	− (>32 μg/mL)	++ (≤8 μg/mL)	++ (≤8 μg/mL)	− (>32 μg/mL)
N=C(N)NCCC[C@@H](NC(=O)[C@H](CCCCN)NC(=O)[C@H](Cc1cnc[nH]1)NC(=O)[C@@H]1CCCN1C(=O)[C@@H](CCCN)NC(=O)CNC(=O)[C@@H](NC(=O)[C@@H](NC(=O)[C@@H](N)CCCCN)[C@@H](O)CN)[C@@H](O)CN)C(=O)N[C@@H](CCCCN)C(=O)NCCCCN [22.5] (H-K[Dab(3S-OH)][Dab(3S-OH)]G[dOrn]PHK[dR]K-{NH(CH2)4NH2})	< 30 nM	+ (≤32 μg/mL)	+ (≤32 μg/mL)	++ (≤8 μg/mL)	− (>32 μg/mL)
CN[C@@H](CCCCN)C(=O)N[C@H](C(=O)N[C@H](C(=O)NCC(=O)N[C@H](CCCN)C(=O)N1CCC[C@H]1C(=O)N[C@@H](Cc1cnc[nH]1)C(=O)N[C@@H](CCCCN)C(=O)N/C(=C\CCNC(=N)N)C(=O)N[C@@H](CCCCN)C(=O)NCCCCN)[C@@H](O)CN)[C@@H](O)CN [22.3] (H-[NMeK][Dab(3S-OH)][Dab(3S-OH)]G[dOrn]PHK[ΔZArg]K-{NH(CH2)4NH2})	< 30 nM	+ (≤32 μg/mL)	++ (≤8 μg/mL)	++ (≤8 μg/mL)	+ (≤32 μg/mL)
C#CC[C@H](NC(=O)[C@@H]1CCCN1C(=O)[C@@H](CCCN)NC(=O)CNC(=O)[C@H](C)NC(=O)[C@@H](NC(=O)[C@@H](N)CCCCN)[C@@H](O)CN)C(=O)N[C@@H](CCCCN)C(=O)N/C(=C\CCNC(=N)N)C(=O)O [24.135] (H-K[Dab(3S-OH)]AG[dOrn]P[Pra]K[ΔZArg]-OH)	> 300 nM	− (>32 μg/mL)	+ (≤32 μg/mL)	+ (≤32 μg/mL)	− (>32 μg/mL)
